In patent publication US9198967B2, “Pharmaceutical compositions active in preventing, stabilizing and treating Alzheimer's disease” (priority 2009, dated 2015):

System: fusiform erythrocytes (FE)
Experiment: FE percentage by Nomarski microscopy on 400 erythrocytes, 6-month clinical study
Format: in vivo, human
Conditions: 6 months
Procedure: The effect of the composition of the invention on FE is measured by the percentage difference in fusiform erythrocytes present in the patient's blood before and after treatment with the composition of the invention.
During the assessments blood was collected, after fasting since the previous evening, into heparinized and non-heparinized tubes. Aliquots of 5 ml were collected (2 of plasma and 1 of serum) from the brachial vein. The collected blood was immediately centrifuged and kept at −80° C. until required for the measurements. A fourth aliquot of 2 ml, without heparin, was collected for FE analysis.
FE measurements were carried out by isolating the erythrocyte pellet by centrifugation (100×g for 15 minutes at 4° C.) and diluting it in 2 ml of a citrate-phosphate-dextrose solution with adenine (CPDA) then centrifuged once more.
After centrifugation the upper part of the solution was removed and the process repeated three times always resuspending with CPDA.
Immediately after the last preparation, FE percentage was calculated using a microscope with Nomarski optics based on an analysis of 400 erythrocytes [Mohanty J G, Eckley D M, J D Williamson et al. Do red blood cell-β-amyloid interaction alter oxygen delivery in Alzheimer's disease? Adv Exp Med Biol 2008; 614:29-35.]

COc1cc2c(cc1OC)C(=O)C(CC1CCN(Cc3ccccc3)CC1)C2 (stereo not shown) [Donepezil]
effect on the number of FE (in words): improvement in the FE
